# Data reported in patent US6313333A, “Multinuclear cationic platinum complexes with antitumor activity” (Setanta Therapeutics, Inc., priority 1997, dated 2001).
# Tested on: murine leukemia L1210
# Settings: l1210 cells
row,Molecule,"IC50, ""in vitro"" cytotoxic activity against murine leukemia L1210"
1,"t,t,t,t,t-[PtCl(NH3)2 H2 N--(CH2)6 --NH2 Pt--(NH3)2 H2 N--(CH2)6 --NH2 Pt(NH3)2 H2 N--(CH2)6 --NH2 Pt(NH3)2 H2 N--(CH2)6 --NH2 PtCl(NH3)2 ]^+8.8Cl^-",0.3 µg/mL
2,"N.N.N.N.N.N.NCCCCCCN.NCCCCCCN.O=[N+]([O-])[O-].O=[N+]([O-])[O-].O=[N+]([O-])[O-].O=[N+]([O-])[O-].[Cl-].[Cl-].[Pt+2].[Pt+2].[Pt+2] [t,t,t-[PtCl(NH3)2 H2 N(CH2)6 NH2 Pt(NH3)2 H2 N(CH2)6 NH2 PtCl(NH3)2]^+4.4NO3^-]",0.38 µg/mL
3,"t,t-[PtCl(NH3)2 H2 N--(CH2)6 --NH2 PtCl(NH3)2 ]^+2.2NO3^-",2.3 µg/mL
